Laboratory results from US9222928B2, “Biphenol ether compounds as markers for liquid hydrocarbons and other fuels and oils” (Dow Global Technologies LLC, priority 2011, dated 2015).

melting point: 33 to 35 °C
SMILES: CCCCCCCCCCCCOc1ccccc1-c1ccccc1OCCCCCCCCCCCC [BDD-BBPh, 2,2′-Bis(dodecyloxy)-1,1′-biphenyl]
